A short description of series [1]: Stability studies on guanfacine prodrugs in buffers. The format is physicochemical.
Where [2] appears, read: DMSO, organic solvent or mixture, Solubility, in DMSO.
Setting [3] is: water/CH3CN (1:1), aqueous with cosolvent or surfactant or cyclodextrin, Solubility, in water/CH3CN (1:1).
The mark [4] stands for this setting: pH 1.2, 37° C., 0.1M HCl/NaCl buffer, 1 h.
Where [5] appears, read: pH 1.2, 37° C., 0.1M HCl/NaCl buffer, time 0.
The mark [6] stands for this setting: pH 3.0, 20° C., 0.1M citrate buffer, 2 h.
The mark [7] stands for this setting: pH 3.0, 20° C., 0.1M citrate buffer, time 0.
The mark [8] stands for this setting: pH 6.8, 37° C., 0.1M phosphate buffer, 2 h.
Setting [9] is: pH 6.8, 37° C., 0.1M phosphate buffer, time 0.
[10] abbreviates: pH 7.4, 37° C., 0.1M phosphate buffer, 2 h.
[11] abbreviates: pH 7.4, 37° C., 0.1M phosphate buffer, time 0.
[12] abbreviates: DMSO, organic solvent or mixture.

Values joined by “and” are separate entries in the source; they are usually repeats but may differ in a detail not shown here. Equal entries are not always repeated. Structures can show the parent of a compound that is named as a salt. A value given as a limit tells only on which side of the number the result lay.

As a reminder, the solubility is how much of the substance goes into solution per volume. Regarding `CC(C)COC(=O)NC(N)=NC(=O)Cc1c(Cl)cccc1Cl.Cl` [Compound 8, 1-{N′-[2-(2,6-Dichloro-phenyl)-acetyl]-guanidinocarbonyloxy}-2-methylpropane Hydrochloride], the solubility was above 10000 µg/mL in the series “Solubility” (setting [2]); below 1000 µg/mL in the series “Solubility” (water, Solubility, in water); above 1000 µg/mL in “Solubility” (setting [3]). For the same molecule, the Active drug in series [1] (setting [4]), in series [1] (setting [5]), in series [1] (setting [6]), in series [1] (setting [7]), in series [1] (setting [8]) and in series [1] (setting [9]) was 0.0 throughout. The Active drug in series [1] (setting [10]) and in series [1] (setting [11]) was 0.0 throughout. Besides, the Pro-drug in series [1] (pH 1.2, 37° C., 0.1M HCl/NaCl buffer, 1 h, listed as Guanfacine Isobutyl Carbamate Hydrochloride, Hydrochloride) is 95.1 and 95.0; in series [1] (setting [5]), 100; in series [1] (pH 3.0, 20° C., 0.1M citrate buffer, 2 h, listed as Guanfacine Isobutyl Carbamate Hydrochloride, Hydrochloride), 95.2 and 95.3; in series [1] (setting [7]), 100; in series [1] (pH 6.8, 37° C., 0.1M phosphate buffer, 2 h, listed as Guanfacine Isobutyl Carbamate Hydrochloride, Hydrochloride), 98.2 and 97.9; in series [1] (setting [9]) it was 100. The Pro-drug was 95.3 and 96.7 in series [1] (pH 7.4, 37° C., 0.1M phosphate buffer, 2 h, listed as Guanfacine Isobutyl Carbamate Hydrochloride, Hydrochloride); 100 in series [1] (setting [11]).

As to `CC(C)(C)COC(=O)NC(N)=NC(=O)Cc1c(Cl)cccc1Cl.Cl` [Compound 9, 1-{N′[2-(2,6-Dichloro-phenyl)-acetyl]guanidinocarbonyloxy}-2,2-dimethylpropane Hydrochloride], the solubility in the series “Solubility” (setting [2]) is above 10000 µg/mL; in “Solubility” (water, Solubility, in water), below 1000 µg/mL; in the series “Solubility” (setting [3]), above 1000 µg/mL. For the same molecule, the Active drug in series [1] (setting [4]), in series [1] (setting [5]), in series [1] (setting [6]), in series [1] (setting [7]), in series [1] (setting [8]) and in series [1] (setting [9]) was 0.0 each time. Moreover, the Active drug in series [1] (setting [10]) and in series [1] (setting [11]) was 0.0 in each case. The Pro-drug in series [1] (pH 1.2, 37° C., 0.1M HCl/NaCl buffer, 1 h, listed as Guanfacine Neopentyl Carbamate Hydrochloride, Hydrochloride) was 94.7 and 93.9; in series [1] (setting [5]) it was 100; in series [1] (pH 3.0, 20° C., 0.1M citrate buffer, 2 h, listed as Guanfacine Neopentyl Carbamate Hydrochloride, Hydrochloride) it was 96.1 and 96.8; in series [1] (setting [7]), 100; in series [1] (pH 6.8, 37° C., 0.1M phosphate buffer, 2 h, listed as Guanfacine Neopentyl Carbamate Hydrochloride, Hydrochloride) it was 98.3 and 97.9; in series [1] (setting [9]), 100. Besides, the Pro-drug in series [1] (pH 7.4, 37° C., 0.1M phosphate buffer, 2 h, listed as Guanfacine Neopentyl Carbamate Hydrochloride, Hydrochloride) was 99.2 and 98.5; in series [1] (setting [11]), 100.

Take `NC(=NC(=O)Cc1c(Cl)cccc1Cl)NC(=O)OCc1ccccc1` [Compound 10, {N′-[2-(2,6-Dichloro-phenyl)-acetyl]guanidino-carbonyloxy}toluene Hydrochloride]: the solubility in the series “Solubility” (CH3CN, organic solvent or mixture, Solubility, in CH3CN) was above 5000 µg/mL; in “Solubility” (setting [2]) it was above 10000 µg/mL; in the series “Solubility” (water, Solubility, in water) it was below 1000 µg/mL.

With `[2H]C([2H])([2H])C([2H])([2H])OC(=O)NC(=N)NC(=O)Cc1c(Cl)cccc1Cl` [Compound 13, {N′-[2-(2,6-Dichloro-phenyl)-acetyl]-guanidinocarbonyloxy} d5-ethane], the solubility is above 10000 µg/mL in the series “Solubility” (setting [2]) and below 1000 µg/mL in “Solubility” (water, Solubility, in water). The Active drug in series [1] (setting [4]), in series [1] (setting [5]), in series [1] (setting [6]), in series [1] (setting [7]), in series [1] (setting [8]) and in series [1] (setting [9]) was 0.0 in each case. For the same molecule, the Active drug in series [1] (setting [10]) and in series [1] (setting [11]) was 0.0 in each case. Besides, the Pro-drug is 97.6 and 96.6 in series [1] (pH 1.2, 37° C., 0.1M HCl/NaCl buffer, 1 h, listed as Guanfacine D5-Ethyl Carbamate); 100 in series [1] (setting [5]); 98.7 and 98.3 in series [1] (pH 3.0, 20° C., 0.1M citrate buffer, 2 h, listed as Guanfacine D5-Ethyl Carbamate); 100 in series [1] (setting [7]); 99.4 and 99.2 in series [1] (pH 6.8, 37° C., 0.1M phosphate buffer, 2 h, listed as Guanfacine D5-Ethyl Carbamate); 100 in series [1] (setting [9]). For the same molecule, the Pro-drug is 99.4 and 99.2 in series [1] (pH 7.4, 37° C., 0.1M phosphate buffer, 2 h, listed as Guanfacine D5-Ethyl Carbamate); 100 in series [1] (setting [11]).

Regarding `CO[C@H]1O[C@H](COC(=O)NC(=N)NC(=O)Cc2c(Cl)cccc2Cl)[C@@H](O)[C@H](O)[C@H]1O.Cl` [Compound 16, 2-(2,6-dichlorophenyl)-N-(N-((((2R,3S,4S,5R,6S)-3,4,5-trihydroxy-6-methoxytetrahydro-2H-pyran-2-yl)methoxy)carbonyl)carbamimidoyl)acetamide hydrochloride], the “Solubility (in words)” value in the series “Solubility” is recorded as “water, DMSO”.

In the case of `N=C(NC(=O)Cc1c(Cl)cccc1Cl)NC(=O)Oc1ccc(CC(=O)O)cc1` [Compound 25, Hydrochloride], the figures for the solubility in “Solubility” (setting [12]) and in “Solubility” (water) were above 23000 µg/mL and below 2300 µg/mL, respectively.

In the case of `Cl.N=C(NC(=O)Cc1c(Cl)cccc1Cl)NC(=O)Oc1cccc(C(=O)O)c1` [Compound 28, 3-[({[2-(2,6-dichlorophenyl)acetamido]methanimidoyl}carbamoyl)oxy]benzoic acid hydrochloride], the “Solubility (in words)” value in “Solubility” is on record as “insoluble in water”. The solubility in the series “Solubility” (setting [12]) was above 20000 µg/mL.

In the case of `CC(C)[C@@H]1CC[C@@H](C)C[C@H]1OC(=O)NC(N)=NC(=O)Cc1c(Cl)cccc1Cl.Cl` [Compound 29, 1-(R)-{N′-[2-(2,6-Dichloro-phenyl)-acetyl]-guanidinocarbonyloxy}-2-(S)-isopropyl-5-(R)-methyl-cyclohexane Hydrochloride], the solubility in the series “Solubility” (2.5 mL CH3CN/1 mL H2O, aqueous with cosolvent or surfactant or cyclodextrin, Solubility, in 2.5 mL CH3CN/1 mL H2O) is above 1430 µg/mL; in “Solubility” (setting [2]), above 10000 µg/mL; in “Solubility” (water, Solubility, in water), below 1000 µg/mL. Also, the Active drug in series [1] (setting [4]), in series [1] (setting [5]), in series [1] (setting [6]), in series [1] (setting [7]), in series [1] (setting [8]) and in series [1] (setting [9]) was 0.0 throughout. In addition, the Active drug in series [1] (setting [10]) and in series [1] (setting [11]) was 0.0 throughout. Moreover, the Pro-drug in series [1] (pH 1.2, 37° C., 0.1M HCl/NaCl buffer, 1 h, listed as Guanfacine-(−)-Menthyl Carbamate Hydrochloride, Hydrochloride) is 94.6 and 95.5; in series [1] (setting [5]), 100; in series [1] (pH 3.0, 20° C., 0.1M citrate buffer, 2 h, listed as Guanfacine-(−)-Menthyl Carbamate Hydrochloride, Hydrochloride) it was 98.3 and 99.6; in series [1] (setting [7]) it was 100; in series [1] (pH 6.8, 37° C., 0.1M phosphate buffer, 2 h, listed as Guanfacine-(−)-Menthyl Carbamate Hydrochloride, Hydrochloride), 97.9 and 97.3; in series [1] (setting [9]), 100. Besides, the Pro-drug in series [1] (pH 7.4, 37° C., 0.1M phosphate buffer, 2 h, listed as Guanfacine-(−)-Menthyl Carbamate Hydrochloride, Hydrochloride) was 94.7 and 96.9; in series [1] (setting [11]) it was 100.

Regarding `Cl.NC(=NC(=O)Cc1c(Cl)cccc1Cl)NC(=O)OCC1CC1` [Compound 31, {N′-[2-(2,6-Dichloro-phenyl)acetyl]-guanidino-carbonyloxy}methylcyclopropane Hydrochloride], the solubility in the series “Solubility” (setting [2]) was above 10000 µg/mL; in “Solubility” (water, Solubility, in water), below 1000 µg/mL; in the series “Solubility” (setting [3]), above 5000 µg/mL. In addition, the Active drug in series [1] (setting [4]) was found to be 0.6; in series [1] (setting [5]), 0.0; in series [1] (setting [6]) it was 0.0; in series [1] (setting [7]), 0.0; in series [1] (setting [8]) it was 0.0; in series [1] (setting [9]), 0.0. Moreover, the Active drug in series [1] (setting [10]) and in series [1] (setting [11]) was 0.0 throughout. For the same molecule, the Pro-drug in series [1] (pH 1.2, 37° C., 0.1M HCl/NaCl buffer, 1 h, listed as Guanfacine Cyclopropylmethyl Carbamate Hydrochloride, Hydrochloride) is 92.9 and 92.7; in series [1] (setting [5]), 100; in series [1] (pH 3.0, 20° C., 0.1M citrate buffer, 2 h, listed as Guanfacine Cyclopropylmethyl Carbamate Hydrochloride, Hydrochloride), 98.3 and 98.5; in series [1] (setting [7]) it was 100; in series [1] (pH 6.8, 37° C., 0.1M phosphate buffer, 2 h, listed as Guanfacine Cyclopropylmethyl Carbamate Hydrochloride, Hydrochloride), 97.6 and 97.4; in series [1] (setting [9]), 100. Further, the Pro-drug in series [1] (pH 7.4, 37° C., 0.1M phosphate buffer, 2 h, listed as Guanfacine Cyclopropylmethyl Carbamate Hydrochloride, Hydrochloride) was 99.6 and 99.5; in series [1] (setting [11]), 100.

Source of the values: patent US20120065152A1 (SHIRE LLC, priority 2010, published 2012).
